# Measured values taken from PMC6199744, “Development of Chemical Proteomics for the Folateome and Analysis of the Kinetoplastid Folateome” (ACS Infectious Diseases, 2018).
# Read-outs that look alike come from different tables or passages of the source.
# How the values were obtained:
# Format in all cases: binding
# [1] = target: T1, HeLa cell extract proteins (Homo sapiens, UniProt Q2TB90)
# T1 construct: endogenous in cells; host or cells: HeLa cell extract
# T1 sequence (Q2TB90 1-917): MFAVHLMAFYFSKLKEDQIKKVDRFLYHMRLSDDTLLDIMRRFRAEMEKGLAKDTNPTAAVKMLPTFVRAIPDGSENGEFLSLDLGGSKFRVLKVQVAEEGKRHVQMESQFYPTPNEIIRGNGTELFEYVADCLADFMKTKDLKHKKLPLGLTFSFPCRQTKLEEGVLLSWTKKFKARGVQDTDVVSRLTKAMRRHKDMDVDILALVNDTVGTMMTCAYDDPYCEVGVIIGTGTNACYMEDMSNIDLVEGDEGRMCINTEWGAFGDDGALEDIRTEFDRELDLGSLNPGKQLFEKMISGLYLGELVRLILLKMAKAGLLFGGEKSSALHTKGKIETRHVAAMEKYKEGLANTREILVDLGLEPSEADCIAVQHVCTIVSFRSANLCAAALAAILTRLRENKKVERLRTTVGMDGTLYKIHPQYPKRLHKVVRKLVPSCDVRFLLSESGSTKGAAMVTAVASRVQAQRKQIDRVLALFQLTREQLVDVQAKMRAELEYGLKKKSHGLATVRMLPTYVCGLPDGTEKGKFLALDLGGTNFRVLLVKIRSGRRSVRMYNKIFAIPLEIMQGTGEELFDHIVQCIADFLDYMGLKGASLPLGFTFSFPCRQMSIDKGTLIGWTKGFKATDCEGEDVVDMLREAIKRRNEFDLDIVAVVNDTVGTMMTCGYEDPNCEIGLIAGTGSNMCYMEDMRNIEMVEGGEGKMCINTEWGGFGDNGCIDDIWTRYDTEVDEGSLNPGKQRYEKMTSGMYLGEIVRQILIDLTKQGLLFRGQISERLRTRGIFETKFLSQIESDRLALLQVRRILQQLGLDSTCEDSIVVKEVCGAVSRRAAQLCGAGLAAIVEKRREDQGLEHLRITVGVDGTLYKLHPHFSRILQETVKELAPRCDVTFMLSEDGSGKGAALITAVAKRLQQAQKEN
# [2] = target: T2, HeLa cell extract proteins (Homo sapiens, UniProt P54819)
# T2 construct: endogenous in cells; host or cells: HeLa cell extract
# [3] = target: T3, HeLa cell extract proteins (Homo sapiens, UniProt P60842)
# T3 construct: endogenous in cells; host or cells: HeLa cell extract
# [4] = target: T4, HeLa cell extract proteins (Homo sapiens, UniProt Q8WWC4)
# T4 construct: endogenous in cells; host or cells: HeLa cell extract
# T4 sequence (Q8WWC4 97-291): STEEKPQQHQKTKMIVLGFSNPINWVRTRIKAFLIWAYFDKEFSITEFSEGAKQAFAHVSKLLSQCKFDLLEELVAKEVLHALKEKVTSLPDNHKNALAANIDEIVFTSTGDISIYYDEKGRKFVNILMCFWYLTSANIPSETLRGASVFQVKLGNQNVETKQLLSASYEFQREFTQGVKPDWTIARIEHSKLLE
# [5] = target: T5, HeLa cell extract proteins (Homo sapiens, UniProt Q5SRE5)
# T5 construct: endogenous in cells; host or cells: HeLa cell extract
# [6] = target: T6, HeLa cell extract proteins (Homo sapiens, UniProt P20674)
# T6 construct: endogenous in cells; host or cells: HeLa cell extract
# [7] = target: T7, HeLa cell extract proteins (Homo sapiens, UniProt Q96BY9)
# T7 construct: endogenous in cells; host or cells: HeLa cell extract
# T7 sequence (Q96BY9 31-339): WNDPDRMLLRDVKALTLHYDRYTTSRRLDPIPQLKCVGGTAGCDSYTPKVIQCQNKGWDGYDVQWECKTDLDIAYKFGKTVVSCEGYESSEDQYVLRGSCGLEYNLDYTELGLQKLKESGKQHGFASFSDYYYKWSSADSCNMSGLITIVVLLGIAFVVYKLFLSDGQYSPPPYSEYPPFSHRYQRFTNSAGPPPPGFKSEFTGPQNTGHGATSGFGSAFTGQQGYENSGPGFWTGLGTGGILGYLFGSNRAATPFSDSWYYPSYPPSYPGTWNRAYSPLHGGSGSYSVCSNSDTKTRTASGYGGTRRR
# [8] = target: T8, HeLa cell extract proteins (Homo sapiens, UniProt P49915)
# T8 construct: endogenous in cells; host or cells: HeLa cell extract
# [9] = target: T9, HeLa cell extract proteins (Homo sapiens, UniProt Q6PJT7)
# T9 construct: endogenous in cells; host or cells: HeLa cell extract
# T9 sequence (Q6PJT7 1-736): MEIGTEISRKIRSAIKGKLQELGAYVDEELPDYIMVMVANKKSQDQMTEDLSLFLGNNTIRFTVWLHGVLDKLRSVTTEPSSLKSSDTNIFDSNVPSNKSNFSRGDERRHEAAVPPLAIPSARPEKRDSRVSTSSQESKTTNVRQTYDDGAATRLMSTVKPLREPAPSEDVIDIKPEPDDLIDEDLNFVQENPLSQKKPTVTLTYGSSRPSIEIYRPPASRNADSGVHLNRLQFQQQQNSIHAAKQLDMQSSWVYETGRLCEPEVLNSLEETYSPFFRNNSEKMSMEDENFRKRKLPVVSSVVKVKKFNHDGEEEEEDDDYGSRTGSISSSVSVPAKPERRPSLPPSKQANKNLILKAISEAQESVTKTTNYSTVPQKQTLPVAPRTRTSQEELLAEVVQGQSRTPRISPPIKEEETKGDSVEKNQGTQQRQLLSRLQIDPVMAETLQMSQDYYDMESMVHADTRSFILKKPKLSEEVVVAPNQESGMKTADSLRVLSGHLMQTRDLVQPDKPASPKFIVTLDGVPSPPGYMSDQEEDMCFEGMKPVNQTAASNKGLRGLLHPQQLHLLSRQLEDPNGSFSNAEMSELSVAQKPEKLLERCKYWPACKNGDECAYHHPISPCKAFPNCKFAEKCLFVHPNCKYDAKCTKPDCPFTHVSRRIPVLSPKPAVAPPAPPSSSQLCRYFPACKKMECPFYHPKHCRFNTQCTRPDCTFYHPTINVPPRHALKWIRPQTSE
# [10] = target: T10, HeLa cell extract proteins (Homo sapiens, UniProt P27708)
# T10 construct: endogenous in cells; host or cells: HeLa cell extract
# [11] = HeLa, protein TMEM66 (TRANSMEMBRANE PROTEIN 66 PRECURSOR)
# T5 sequence (Q5SRE5 whole entry): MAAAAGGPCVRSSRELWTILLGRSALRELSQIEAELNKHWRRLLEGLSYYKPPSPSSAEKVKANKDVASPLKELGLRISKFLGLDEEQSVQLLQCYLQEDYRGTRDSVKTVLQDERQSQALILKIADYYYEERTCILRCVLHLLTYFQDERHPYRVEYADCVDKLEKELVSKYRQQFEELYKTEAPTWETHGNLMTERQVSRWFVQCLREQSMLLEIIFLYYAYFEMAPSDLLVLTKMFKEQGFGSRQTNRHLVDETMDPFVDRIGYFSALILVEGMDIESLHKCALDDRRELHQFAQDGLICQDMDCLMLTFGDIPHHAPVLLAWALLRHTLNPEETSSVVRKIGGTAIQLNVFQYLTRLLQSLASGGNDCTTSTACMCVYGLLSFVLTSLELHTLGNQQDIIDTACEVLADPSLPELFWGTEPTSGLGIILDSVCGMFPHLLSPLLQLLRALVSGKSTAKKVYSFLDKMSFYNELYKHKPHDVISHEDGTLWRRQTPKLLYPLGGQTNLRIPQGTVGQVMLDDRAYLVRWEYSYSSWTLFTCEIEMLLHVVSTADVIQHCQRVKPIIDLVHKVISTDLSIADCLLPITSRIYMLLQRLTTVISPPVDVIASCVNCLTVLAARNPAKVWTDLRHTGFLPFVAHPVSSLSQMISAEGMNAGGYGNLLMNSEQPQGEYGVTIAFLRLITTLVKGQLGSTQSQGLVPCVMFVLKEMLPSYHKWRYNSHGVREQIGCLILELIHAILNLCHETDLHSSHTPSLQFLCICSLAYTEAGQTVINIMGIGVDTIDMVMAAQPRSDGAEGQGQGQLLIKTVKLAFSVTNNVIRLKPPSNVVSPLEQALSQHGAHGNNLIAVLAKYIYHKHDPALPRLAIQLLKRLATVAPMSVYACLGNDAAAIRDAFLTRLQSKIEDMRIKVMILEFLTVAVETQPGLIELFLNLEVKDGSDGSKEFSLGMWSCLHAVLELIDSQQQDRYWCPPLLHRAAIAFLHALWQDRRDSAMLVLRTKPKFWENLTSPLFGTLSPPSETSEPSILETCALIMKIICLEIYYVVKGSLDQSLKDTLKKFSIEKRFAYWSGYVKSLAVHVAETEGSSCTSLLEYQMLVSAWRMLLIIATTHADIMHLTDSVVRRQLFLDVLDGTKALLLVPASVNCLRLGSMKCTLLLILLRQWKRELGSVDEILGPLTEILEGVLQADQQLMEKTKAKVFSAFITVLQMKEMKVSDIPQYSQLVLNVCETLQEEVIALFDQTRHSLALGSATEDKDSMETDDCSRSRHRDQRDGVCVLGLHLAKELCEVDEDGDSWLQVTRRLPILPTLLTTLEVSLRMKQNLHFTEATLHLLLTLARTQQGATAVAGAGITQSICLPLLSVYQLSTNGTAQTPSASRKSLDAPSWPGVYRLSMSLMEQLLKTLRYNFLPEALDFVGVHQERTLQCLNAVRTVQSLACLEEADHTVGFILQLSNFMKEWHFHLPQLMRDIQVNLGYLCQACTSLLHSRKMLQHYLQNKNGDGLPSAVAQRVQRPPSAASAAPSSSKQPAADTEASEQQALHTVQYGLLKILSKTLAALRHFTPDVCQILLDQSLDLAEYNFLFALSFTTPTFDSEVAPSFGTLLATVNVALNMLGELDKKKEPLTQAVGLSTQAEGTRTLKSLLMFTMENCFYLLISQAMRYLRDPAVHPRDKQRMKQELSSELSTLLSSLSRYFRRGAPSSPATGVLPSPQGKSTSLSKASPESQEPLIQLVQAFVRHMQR
# T10 sequence (P27708 whole entry): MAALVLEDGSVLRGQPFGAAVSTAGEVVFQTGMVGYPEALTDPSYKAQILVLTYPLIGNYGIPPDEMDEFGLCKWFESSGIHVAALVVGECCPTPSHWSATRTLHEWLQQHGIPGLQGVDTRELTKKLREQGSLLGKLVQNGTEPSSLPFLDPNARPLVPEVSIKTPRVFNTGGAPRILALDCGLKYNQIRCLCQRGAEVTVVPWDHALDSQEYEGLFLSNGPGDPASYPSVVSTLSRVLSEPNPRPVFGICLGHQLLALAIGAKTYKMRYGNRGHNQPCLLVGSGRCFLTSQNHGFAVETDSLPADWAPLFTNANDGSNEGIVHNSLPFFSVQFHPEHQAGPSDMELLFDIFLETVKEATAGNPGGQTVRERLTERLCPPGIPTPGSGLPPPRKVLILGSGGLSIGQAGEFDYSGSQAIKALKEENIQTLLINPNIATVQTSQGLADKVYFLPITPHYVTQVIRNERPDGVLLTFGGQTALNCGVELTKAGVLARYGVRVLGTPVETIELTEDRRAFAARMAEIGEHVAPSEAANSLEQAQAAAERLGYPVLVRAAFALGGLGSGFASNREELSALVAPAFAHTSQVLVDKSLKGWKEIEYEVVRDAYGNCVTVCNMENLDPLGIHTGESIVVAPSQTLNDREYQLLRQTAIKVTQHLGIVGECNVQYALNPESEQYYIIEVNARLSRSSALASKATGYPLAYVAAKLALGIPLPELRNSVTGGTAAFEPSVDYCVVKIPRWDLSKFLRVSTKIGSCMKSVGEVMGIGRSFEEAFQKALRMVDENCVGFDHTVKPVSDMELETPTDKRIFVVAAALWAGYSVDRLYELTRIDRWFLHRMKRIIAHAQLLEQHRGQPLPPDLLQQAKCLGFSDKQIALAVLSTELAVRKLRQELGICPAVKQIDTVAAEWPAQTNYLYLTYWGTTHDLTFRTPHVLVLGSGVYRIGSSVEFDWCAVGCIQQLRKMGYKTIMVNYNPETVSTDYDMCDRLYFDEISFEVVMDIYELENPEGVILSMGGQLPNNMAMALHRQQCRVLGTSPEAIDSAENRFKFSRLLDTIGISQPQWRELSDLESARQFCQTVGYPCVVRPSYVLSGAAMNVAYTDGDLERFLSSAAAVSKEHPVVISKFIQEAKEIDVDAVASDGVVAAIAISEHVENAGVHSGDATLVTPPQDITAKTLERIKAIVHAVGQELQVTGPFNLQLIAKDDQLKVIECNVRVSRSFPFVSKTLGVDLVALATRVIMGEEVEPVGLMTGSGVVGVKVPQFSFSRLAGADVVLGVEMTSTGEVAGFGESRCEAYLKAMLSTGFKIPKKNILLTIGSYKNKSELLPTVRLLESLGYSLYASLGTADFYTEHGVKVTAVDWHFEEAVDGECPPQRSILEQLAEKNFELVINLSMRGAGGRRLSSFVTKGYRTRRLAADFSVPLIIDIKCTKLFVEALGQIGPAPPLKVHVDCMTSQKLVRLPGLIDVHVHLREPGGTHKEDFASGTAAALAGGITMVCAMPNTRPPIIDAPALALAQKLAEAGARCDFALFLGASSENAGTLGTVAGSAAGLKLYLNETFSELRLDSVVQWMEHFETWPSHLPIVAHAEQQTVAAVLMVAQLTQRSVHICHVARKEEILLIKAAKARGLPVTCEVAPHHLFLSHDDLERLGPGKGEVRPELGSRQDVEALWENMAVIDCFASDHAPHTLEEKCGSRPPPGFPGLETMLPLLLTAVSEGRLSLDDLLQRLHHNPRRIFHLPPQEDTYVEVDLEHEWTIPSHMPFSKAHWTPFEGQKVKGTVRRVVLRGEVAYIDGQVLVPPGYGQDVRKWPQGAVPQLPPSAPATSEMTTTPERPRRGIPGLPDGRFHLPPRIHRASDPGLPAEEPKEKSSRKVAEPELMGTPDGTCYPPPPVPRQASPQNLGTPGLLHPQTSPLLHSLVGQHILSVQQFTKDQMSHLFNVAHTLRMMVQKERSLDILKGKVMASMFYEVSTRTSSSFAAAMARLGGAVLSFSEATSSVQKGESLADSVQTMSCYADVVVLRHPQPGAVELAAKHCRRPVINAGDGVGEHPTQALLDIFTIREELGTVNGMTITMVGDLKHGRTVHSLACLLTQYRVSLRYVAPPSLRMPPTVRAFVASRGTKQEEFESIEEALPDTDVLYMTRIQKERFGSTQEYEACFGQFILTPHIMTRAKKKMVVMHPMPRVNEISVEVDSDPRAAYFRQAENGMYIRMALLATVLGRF
# T6 sequence (P20674 42-150): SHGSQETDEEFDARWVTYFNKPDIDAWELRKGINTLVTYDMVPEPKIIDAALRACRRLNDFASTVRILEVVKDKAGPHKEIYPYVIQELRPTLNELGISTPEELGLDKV
# T8 sequence (P49915 whole entry): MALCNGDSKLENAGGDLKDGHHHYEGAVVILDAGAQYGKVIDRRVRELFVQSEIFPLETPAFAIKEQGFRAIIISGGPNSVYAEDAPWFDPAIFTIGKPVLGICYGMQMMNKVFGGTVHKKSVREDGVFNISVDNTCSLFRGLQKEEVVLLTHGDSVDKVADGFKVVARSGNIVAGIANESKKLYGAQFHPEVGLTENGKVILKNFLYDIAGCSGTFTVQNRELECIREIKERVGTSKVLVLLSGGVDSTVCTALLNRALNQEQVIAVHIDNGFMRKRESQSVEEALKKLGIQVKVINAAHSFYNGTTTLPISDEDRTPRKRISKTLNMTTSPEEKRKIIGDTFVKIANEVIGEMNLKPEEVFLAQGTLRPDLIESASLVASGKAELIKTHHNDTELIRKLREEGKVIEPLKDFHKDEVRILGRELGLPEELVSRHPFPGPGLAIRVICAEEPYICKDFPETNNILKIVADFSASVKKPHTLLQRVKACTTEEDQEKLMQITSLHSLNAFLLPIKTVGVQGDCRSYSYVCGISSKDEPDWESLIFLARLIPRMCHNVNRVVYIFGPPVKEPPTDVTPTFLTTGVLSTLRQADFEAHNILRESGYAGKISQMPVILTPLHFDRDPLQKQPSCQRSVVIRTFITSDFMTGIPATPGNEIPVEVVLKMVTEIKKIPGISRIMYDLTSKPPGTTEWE
SMILES,"fold changes relative to vehicle control ([1]; captured protein HKDC1, HeLa)","fold changes relative to vehicle control ([2]; captured protein AK2, HeLa)","fold changes relative to vehicle control ([3]; protein EIF4A1, HeLa)","fold changes relative to vehicle control ([4]; HeLa, protein C2ORF47)","fold changes relative to vehicle control ([5]; HeLa, protein NUP188)","fold changes relative to vehicle control ([6]; captured protein COX5A, HeLa)","fold changes relative to vehicle control ([7]; protein TMEM66, HeLa)","fold changes relative to vehicle control ([8]; protein GMPS, HeLa)","fold changes relative to vehicle control ([9]; captured protein ZC3H14, HeLa)","fold changes relative to vehicle control ([10]; captured protein CAD, HeLa)","fold changes relative to vehicle control ([1]; HeLa, protein HKDC1)","fold changes relative to vehicle control ([2]; protein AK2, HeLa)","fold changes relative to vehicle control ([3]; HeLa, protein EIF4A1)","fold changes relative to vehicle control ([4]; protein C2ORF47, HeLa)","fold changes relative to vehicle control ([5]; HeLa, captured protein NUP188)","fold changes relative to vehicle control ([6]; HeLa, captured protein COX5A)","fold changes relative to vehicle control ([8]; HeLa, protein GMPS)","fold changes relative to vehicle control ([9]; HeLa, captured protein ZC3H14)","fold changes relative to vehicle control ([10]; protein CAD, HeLa)",further results
Nc1nc2cccc(-c3ccccc3)c2n1Cc1ccc(Cl)c(Cl)c1 [compound 3],1.05,0.91,0.8,1.11,1.07,1.18,0.98,0.96,0.96,1.14,–,–,–,–,–,–,–,–,–,–
CCCCCCOc1ccc(Cc2cnc(N)nc2N)cc1 [compound 1],1,1.04,1.12,1.1,1.07,0.98,1.16,1.37,0.83,1.1,–,–,–,–,–,–,–,–,–,–
NCCCNc1ccc(C(=O)NC(CCC(=O)O)C(=O)O)cc1 (stereo not shown) [compound 7],–,–,–,–,–,–,–,–,–,–,1.09,1.08,0.89,1.06,1.07,1.63,1.11,1.04,1.3,"fold changes relative to vehicle control [7, 11]: 0.87"
CCCCCCOc1cccc(Cc2cnc(N)nc2N)c1 [compound 2],1.1,1,1.75,1.06,1.08,0.91,1.29,1.94,0.94,1.01,–,–,–,–,–,–,–,–,–,–
NCCOCCOCC(=O)Nc1nc2ncc(CNc3ccc(C(=O)NC(CCC(=O)O)C(=O)O)cc3)nc2c(=O)[nH]1 (stereo not shown) [compound 6],–,–,–,–,–,–,–,–,–,–,1.06,0.95,1.27,0.99,1.17,1.87,1.24,0.99,1.18,"fold changes relative to vehicle control [7, 11]: 0.85"
"Nc1nc2[nH]cc(CCc3ccc(C(=O)N[C@@H](CCC(=O)O)C(=O)O)cc3)c2c(=O)[nH]1 [PTX, pemetrexed]",–,–,–,–,–,–,–,–,–,–,–,–,–,–,–,–,–,–,–,fold changes relative to vehicle control [1]: 0.89; fold changes relative to vehicle control [2]: 0.86; fold changes relative to vehicle control [3]: 1.07; fold changes relative to vehicle control [4]: 0.92; fold changes relative to vehicle control [5]: 1.17; fold changes relative to vehicle control [6]: 1.5; fold changes relative to vehicle control [7]: 0.92; fold changes relative to vehicle control [8]: 0.99; fold changes relative to vehicle control [9]: 0.95; fold changes relative to vehicle control [10]: 0.52
"Nc1nc2c(c(=O)[nH]1)N(C=O)C(CNc1ccc(C(=O)N[C@@H](CCC(=O)O)C(=O)O)cc1)CN2 (stereo partly shown) [LEU, leucovorin]",–,–,–,–,–,–,–,–,–,–,0.89,0.99,0.99,0.93,1.13,1.23,0.93,1,1.34,"fold changes relative to vehicle control ([7]; HeLa, protein TMEM66 (TRA[…] 66 PRECURSOR)): 1.06"
